The results in this text go back to PubChem BioAssay AID248 (DTP/NCI, 2004).

Several values for one entry are separate records, joined by “and”; a condition that tells them apart may be missing. Equal entries are not always repeated. Inconclusive results and toxic doses are left out.

The experiment concerns L1210 leukemia ip in BDF1 mice, survival T/C. In words: NCI In Vivo Anticancer Drug Screen. Data for tumor model L1210 Leukemia (intraperitoneal) in B6D2F1 (BDF1) mice. To be noted: higher = longer survival. The gist of the method:
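In this screen, tumor-bearing mice given compound are compared to those given vehicle, and their survival values are reported as a treated-to-control quotient.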

[1] abbreviates: endpoint: mean survival time, dose: 100.0 mg/kg/injection, schedule: Q01DX009 (ip), vehicle: Klucel (hydroxypropylcellulose) (HPC).
Setting [2] is: endpoint: mean survival time, dose: 300.0 mg/kg/injection, schedule: Q01DX009 (ip), vehicle: saline.
The mark [3] stands for this setting: endpoint: mean survival time, dose: 100.0 mg/kg/injection, schedule: Q04DX003 (ip), vehicle: saline with Tween-80.
The mark [4] stands for this setting: endpoint: mean survival time, dose: 200.0 mg/kg/injection, schedule: Q04DX003 (ip), vehicle: saline with Tween-80.
Setting [5] is: endpoint: mean survival time, dose: 400.0 mg/kg/injection, schedule: Q04DX003 (ip), vehicle: saline with Tween-80.
[6] abbreviates: endpoint: mean survival time, dose: 100.0 mg/kg/injection, schedule: Q01DX009 (ip), vehicle: saline with Tween-80.
[7] abbreviates: endpoint: mean survival time, dose: 200.0 mg/kg/injection, schedule: Q01DX009 (ip), vehicle: saline with Tween-80.

Consider `CS(=O)(=O)CCS(=O)(=O)c1cccs1`, for which the T/C by setting is: (endpoint: mean survival time, dose: 50.0 mg/kg/injection, schedule: Q01DX009 (ip), vehicle: Klucel (hydroxypropylcellulose) (HPC)) 103 % of control; under setting [1], 102 % of control; (endpoint: mean survival time, dose: 100.0 mg/kg/injection, schedule: Q04DX003 (ip), vehicle: Klucel (hydroxypropylcellulose) (HPC)) 110 % of control; (endpoint: mean survival time, dose: 200.0 mg/kg/injection, schedule: Q04DX003 (ip), vehicle: Klucel (hydroxypropylcellulose) (HPC)) 112 % of control; (endpoint: mean survival time, dose: 400.0 mg/kg/injection, schedule: Q04DX003 (ip), vehicle: Klucel (hydroxypropylcellulose) (HPC)) 111 % of control.

For `CN1CCCC2C3=CC=C4CC(O)CCC4(C)C3CCC21C` (centres undefined), the T/C is, setting by setting: (endpoint: mean survival time, dose: 75.0 mg/kg/injection, schedule: Q01DX001 (ip), vehicle: carboxymethylcellulose (CMC)) 98 % of control; (endpoint: mean survival time, dose: 150.0 mg/kg/injection, schedule: Q01DX001 (ip), vehicle: carboxymethylcellulose (CMC)) 101 % of control.

On to `CC(C)c1ccc(N2P(=O)(N(C)C)N(c3ccc(C(C)C)cc3)P2(=O)N(C)C)cc1` (centres undefined), for which the T/C is 95 % of control under setting [1]; 92 % of control (endpoint: mean survival time, dose: 200.0 mg/kg/injection, schedule: Q01DX009 (ip), vehicle: Klucel (hydroxypropylcellulose) (HPC)); 98 % of control (endpoint: mean survival time, dose: 400.0 mg/kg/injection, schedule: Q01DX009 (ip), vehicle: Klucel (hydroxypropylcellulose) (HPC)).

In the case of `CCC(=O)NC1=C(N2CC2)C(=O)C(NC(=O)CC)=C(N2CC2)C1=O`, the T/C was 121 % of control (endpoint: mean survival time, dose: 0.31 mg/kg/injection, schedule: Q01DX009 (ip), vehicle: Klucel (hydroxypropylcellulose) (HPC)); 115 % of control (endpoint: mean survival time, dose: 1.25 mg/kg/injection, schedule: Q01DX001 (ip), vehicle: saline with Tween-80); 108 % of control (endpoint: mean survival time, dose: 1.25 mg/kg/injection, schedule: Q01DX001 (ip), vehicle: saline); 162 % of control (endpoint: mean survival time, dose: 1.25 mg/kg/injection, schedule: Q01DX009 (ip), vehicle: Klucel (hydroxypropylcellulose) (HPC)); 119 % of control (endpoint: mean survival time, dose: 2.5 mg/kg/injection, schedule: Q01DX001 (ip), vehicle: saline); 175 % of control (endpoint: mean survival time, dose: 2.5 mg/kg/injection, schedule: Q04DX003 (ip), vehicle: Klucel (hydroxypropylcellulose) (HPC)). For the same molecule, the T/C by setting is: (endpoint: mean survival time, dose: 5.0 mg/kg/injection, schedule: Q01DX001 (ip), vehicle: saline with Tween-80) 167 % of control; (endpoint: mean survival time, dose: 5.0 mg/kg/injection, schedule: Q01DX009 (ip), vehicle: Klucel (hydroxypropylcellulose) (HPC)) 104 % of control; (endpoint: mean survival time, dose: 5.0 mg/kg/injection, schedule: Q01DX009 (ip), vehicle: saline) 100 % of control; (endpoint: mean survival time, dose: 5.0 mg/kg/injection, schedule: Q04DX003 (ip), vehicle: Klucel (hydroxypropylcellulose) (HPC)) 102 % of control; (endpoint: mean survival time, dose: 10.0 mg/kg/injection, schedule: Q01DX001 (ip), vehicle: saline with Tween-80) 169 % of control; (endpoint: mean survival time, dose: 10.0 mg/kg/injection, schedule: Q01DX009 (ip), vehicle: saline) 93 % of control. Besides, under “endpoint: mean survival time, dose: 10.0 mg/kg/injection, schedule: Q04DX003 (ip), vehicle: Klucel (hydroxypropylcellulose) (HPC)”, the T/C was 90 % of control.

For the molecule `Cc1cccc(Cl)c1NC(=S)Nc1ccccc1`, the T/C was 101 % of control (endpoint: mean survival time, dose: 100.0 mg/kg/injection, schedule: Q04DX002 (ip), vehicle: Klucel (hydroxypropylcellulose) (HPC)); 94 % of control (endpoint: mean survival time, dose: 200.0 mg/kg/injection, schedule: Q04DX002 (ip), vehicle: Klucel (hydroxypropylcellulose) (HPC)); 97 % of control (endpoint: mean survival time, dose: 400.0 mg/kg/injection, schedule: Q04DX002 (ip), vehicle: Klucel (hydroxypropylcellulose) (HPC)).

On to `C=CCNC(=O)NCC=C`, for which the T/C was 114 % of control (endpoint: mean survival time, dose: 6.25 mg/kg/injection, schedule: Q01DX009 (ip), vehicle: saline); 116 % of control (endpoint: mean survival time, dose: 6.25 mg/kg/injection, schedule: Q01DX009 (oral), vehicle: saline); 105 % of control and 106 % of control (endpoint: mean survival time, dose: 12.5 mg/kg/injection, schedule: Q01DX009 (ip), vehicle: saline); 110 % of control (endpoint: mean survival time, dose: 12.5 mg/kg/injection, schedule: Q01DX009 (oral), vehicle: saline); 176 % of control (endpoint: mean survival time, dose: 50.0 mg/kg/injection, schedule: Q01DX009 (oral), vehicle: saline); 111 % of control (endpoint: mean survival time, dose: 100.0 mg/kg/injection, schedule: Q01DX001 (ip), vehicle: saline). The T/C (endpoint: mean survival time, dose: 200.0 mg/kg/injection, schedule: Q01DX001 (ip), vehicle: saline) is 114 % of control; the T/C (endpoint: mean survival time, dose: 200.0 mg/kg/injection, schedule: Q01DX009 (oral), vehicle: saline) was 100 % of control; the T/C under setting [2] was 122 % of control; the T/C (endpoint: median survival time, dose: 12.5 mg/kg/injection, schedule: Q01DX009 (ip), vehicle: saline) is 122 % of control; the T/C (endpoint: median survival time, dose: 12.5 mg/kg/injection, schedule: Q01DX009 (sc), vehicle: saline) is 116 % of control; the T/C (endpoint: median survival time, dose: 50.0 mg/kg/injection, schedule: Q01DX009 (ip), vehicle: saline) is 112 % of control and 122 % of control. Moreover, the T/C runs as follows: (endpoint: median survival time, dose: 100.0 mg/kg/injection, schedule: Q01DX001 (ip), vehicle: saline) 105 % of control; (endpoint: median survival time, dose: 100.0 mg/kg/injection, schedule: Q01DX001 (sc), vehicle: saline) 105 % of control; (endpoint: median survival time, dose: 100.0 mg/kg/injection, schedule: Q04DX003 (ip), vehicle: saline) 105 % of control; (endpoint: median survival time, dose: 100.0 mg/kg/injection, schedule: Q04DX003 (sc), vehicle: saline) 111 % of control; (endpoint: median survival time, dose: 200.0 mg/kg/injection, schedule: Q01DX001 (ip), vehicle: saline) 111 % of control; (endpoint: median survival time, dose: 200.0 mg/kg/injection, schedule: Q01DX001 (sc), vehicle: saline) 111 % of control. The T/C (endpoint: median survival time, dose: 200.0 mg/kg/injection, schedule: Q01DX009 (ip), vehicle: saline) was 100 % of control and 122 % of control; the T/C (endpoint: median survival time, dose: 200.0 mg/kg/injection, schedule: Q04DX003 (ip), vehicle: saline) is 116 % of control; the T/C (endpoint: median survival time, dose: 200.0 mg/kg/injection, schedule: Q04DX003 (sc), vehicle: saline) is 116 % of control.

In the case of `COc1ccc(Cl)cc1NC1=CC(c2ccc(Cl)cc2)OC1=O` (centres undefined), the T/C was 102 % of control under setting [3], 100 % of control under setting [4] and 91 % of control under setting [5].

For `COc1cc(C(C)=O)ccc1OCc1ccccc1`, the T/C was 98 % of control and 107 % of control (endpoint: mean survival time, dose: 25.0 mg/kg/injection, schedule: Q01DX009 (ip), vehicle: saline with Tween-80); 96 % of control and 103 % of control (endpoint: mean survival time, dose: 50.0 mg/kg/injection, schedule: Q01DX009 (ip), vehicle: saline with Tween-80); 96 % of control and 101 % of control under setting [6]; 93 % of control and 112 % of control under setting [7].

With `NC(CCC(=O)NC(CSC(c1ccccc1)(c1ccccc1)c1ccccc1)C(=O)NCC(=O)O)C(=O)O` (centres undefined), the T/C is, setting by setting: (endpoint: mean survival time, dose: 25.0 mg/kg/injection, schedule: Q01DX009 (ip), vehicle: saline) 109 % of control; (endpoint: mean survival time, dose: 50.0 mg/kg/injection, schedule: Q01DX009 (ip), vehicle: saline) 104 % of control and 114 % of control; (endpoint: mean survival time, dose: 100.0 mg/kg/injection, schedule: Q01DX009 (ip), vehicle: saline) 107 % of control and 113 % of control; (endpoint: mean survival time, dose: 200.0 mg/kg/injection, schedule: Q01DX009 (ip), vehicle: saline) 124 % of control; under setting [2], 90 % of control.

With `CC1OC(O[C@@H]2C=C3CC[C@@H]4[C@H](CC[C@]5(C)[C@@H](c6ccc(=O)oc6)CC[C@]45O)[C@@]3(C)CC2)C(O)C(OC2OC(CO)C(O)C(O)C2O)C1O` (some centres undefined), the T/C (endpoint: mean survival time, dose: 1.0 mg/kg/injection, schedule: Q01DX015 (sc), vehicle: steriod suspending solution) was 95 % of control; the T/C (endpoint: mean survival time, dose: 2.0 mg/kg/injection, schedule: Q01DX015 (sc), vehicle: steriod suspending solution) was 98 % of control; the T/C (endpoint: mean survival time, dose: 4.0 mg/kg/injection, schedule: Q01DX015 (sc), vehicle: steriod suspending solution) is 96 % of control; the T/C (endpoint: mean survival time, dose: 5.0 mg/kg/injection, schedule: Q01DX001 (ip), vehicle: saline) is 95 % of control; the T/C (endpoint: mean survival time, dose: 8.0 mg/kg/injection, schedule: Q01DX015 (sc), vehicle: steriod suspending solution) is 97 % of control; the T/C (endpoint: mean survival time, dose: 10.0 mg/kg/injection, schedule: Q01DX001 (ip), vehicle: saline) was 106 % of control. Besides, the T/C by setting is: (endpoint: mean survival time, dose: 16.0 mg/kg/injection, schedule: Q01DX015 (sc), vehicle: steriod suspending solution) 103 % of control; (endpoint: mean survival time, dose: 20.0 mg/kg/injection, schedule: Q01DX001 (ip), vehicle: saline) 97 % of control; (endpoint: mean survival time, dose: 32.0 mg/kg/injection, schedule: Q01DX015 (sc), vehicle: steriod suspending solution) 100 % of control.

For `O=C1C(Br)C2CCC1C2C(=O)O` (centres undefined), the T/C under setting [6] is 103 % of control; the T/C under setting [3] is 87 % of control; the T/C under setting [7] was 89 % of control and 96 % of control; the T/C under setting [4] is 92 % of control; the T/C (endpoint: mean survival time, dose: 400.0 mg/kg/injection, schedule: Q01DX009 (ip), vehicle: saline with Tween-80) was 100 % of control and 94 % of control; the T/C under setting [5] was 101 % of control.
